Holding throughout (experiment): DTP human tumour cell line panel, 48 h
For test [1], the system named is A498 renal.
For test [2], the system named is A549 NSCLC.
Test [3] concerns LOX IMVI melanoma.
In test [4] the test system is SNB-19 CNS.
The test system of test [5] is NCI-H460 lung.
Test [6] has as its system U251 CNS.
Test [7] relates to HOP-92 NSCLC.
Test [8] deals with BT-549 breast.
Test [9] deals with MDA-MB-435.

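Interpolation was linear, between the two tested concentrations surrounding the appropriate level; five concentrations were tested over 48 hours in 96-well plates. The concentration for 50% growth inhibition is given as GI50. TGI denotes the concentration required for complete inhibition of growth.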

For orientation: TGI means the concentration at which net growth stops. Read a low TGI as greater sensitivity of the cells. For the compound `Cc1ccccc1-n1c(N)c(-c2nc3ccccc3[nH]2)sc1=S`, the TGI was greater than 100 µM in [1], 71.3 µM in test [2], 52.6 µM in test [3] and 66.4 µM in test [4].

`CCOC(=O)C1Nc2ccccc2[C@H]2OCC[C@@H]12` (stereo partly specified): the TGI in test [1], in test [2], in test [3], in test [5], in test [4] and in [6] was greater than 100 µM throughout.

On to `CCCC(S(=O)(=O)c1ccccc1)S(=O)(=O)c1ccccc1`, for which the TGI in [1], in test [2], in test [5] and in test [6] was greater than 100 µM in each case.

On to `O=C(/C=C/c1ccc(Cl)c(Cl)c1)c1cccc2ccccc12`, for which the TGI in test [1] was determined as 38 µM; in test [2], 45.2 µM; in test [7] it was 31.4 µM; in test [5] it was 19.3 µM; in [4], 19.4 µM; in test [6] it was 6.89 µM.

Consider `CC1=C(CC2C(=O)N(c3ccccc3)S(=O)(=O)NC2C)C(=O)N(c2ccccc2)S(=O)(=O)N1C` (stereo unspecified), for which the TGI in test [2], in test [7], in test [3], in [5] and in [4] was greater than 100 µM throughout.

A word on the GI50: it is the concentration at which growth is held to half of that of the control. Regarding `O=c1c2cc(F)ccc2sc2c(NCCCNCCO)nc3ccccc3c12`, the GI50 was 1.67 µM in [1]; 1.79 µM in [2]; 8.7 µM in [8]; 1.23 µM in test [7]; 1.68 µM in test [3]; 1.79 µM in test [9]. Further, the GI50 in test [5] is 1.64 µM; in test [4], 1.66 µM. For the same compound, the TGI in test [1] is 3.32 µM; in test [2], 3.78 µM; in [8] it was 22 µM; in test [7] it was 3.14 µM; in test [3], 3.17 µM; in [9] it was 3.4 µM. Besides, the TGI was 3.19 µM in [5] and 3.14 µM in test [4].

For the compound `COc1ccc(OC(=O)CC2Cc3cc(OC)c(OC)c(OC)c3-c3ccc(SC)c(=O)cc32)cc1` (stereo unspecified), the TGI in test [1] was 2.57 µM; in test [2] it was greater than 100 µM; in [7] it was 9.05 µM; in test [3], 17.8 µM; in test [5], 4.99 µM; in [4] it was greater than 100 µM. In test [6], this compound returned a TGI greater than 100 µM.

Consider `CCOC(=O)/C(I)=C/c1cc(OC)c(OC)c(OC)c1`, for which the TGI in [1] was 91.3 µM; in test [2], 22.5 µM; in test [7], 27.1 µM; in [3], 5.01 µM; in test [5], greater than 100 µM; in test [4], 31.8 µM. This compound registered a TGI in test [6] of 18.3 µM.

Consider `N[C@H](COCc1ccccc1)c1ccccc1`, for which the TGI in test [1] was 88.2 µM; in test [2] it was greater than 100 µM; in test [7], 62 µM; in test [3], greater than 92.2 µM; in test [5] it was 61.9 µM; in test [4] it was greater than 89.7 µM. This compound showed a TGI in [6] greater than 100 µM.

Consider `CC1=NN(c2ccccc2)C(=O)/C1=C\c1ccc([N+](=O)[O-])cc1`, for which the TGI is 56.2 µM in test [1]; greater than 100 µM in test [2]; 48.1 µM in test [3]; greater than 100 µM in [5]; greater than 100 µM in [4]; greater than 100 µM in [6].

Take `CC1=C(C(=O)Nc2ccc(Cl)c(Cl)c2)C(c2ccc([N+](=O)[O-])cc2)C(C(=O)Nc2ccc(Cl)c(Cl)c2)=C(C)N1`: the TGI in [1] was 14.8 µM; in test [2], 15.1 µM; in test [7], 6.06 µM; in test [3], 4.02 µM; in test [5] it was 6.15 µM; in test [4] it was greater than 71.3 µM. The same compound returned a TGI in [6] of 11.5 µM.

`N#CC1(C#N)C(c2ccccc2)C=CC12OCCCO2` (stereo unspecified): the TGI in test [1], in [2], in test [7], in test [3], in test [5] and in test [4] was greater than 100 µM each time. Moreover, the TGI in test [6] is greater than 100 µM.

With `O=C(Cc1nc2ccccc2o1)C(=O)Nc1cccc(C(F)(F)F)c1`, the TGI in [1], in [2], in test [7], in test [3], in test [5] and in test [4] was greater than 100 µM in each case. The TGI in test [6] is greater than 100 µM.

For `COc1ccc(-c2[nH]c3ccccc3c2CCNS(=O)(=O)c2ccc(C)cc2)cc1`, the TGI in test [1], in test [2], in test [7], in test [3], in test [5] and in [4] was greater than 10 µM each time. In addition, the TGI in test [6] is greater than 10 µM.

On to `N#CNc1nc(N)c(-c2ccc(Cl)cc2)c(C(=O)Nc2nccs2)n1`, for which the TGI in [1], in [2], in [7], in test [3], in test [5] and in [4] was greater than 100 µM each time. The TGI in test [6] was greater than 100 µM.

As to `Cc1cc(=O)c2c(O)cc3c(c2o1)CC=C(COC1OC(COC2OC(CO)C(O)C(O)C2O)C(O)C(O)C1O)CO3` (stereo unspecified), the TGI in test [2], in test [7], in [3], in [5], in test [4] and in test [6] was greater than 100 µM in each case.

Consider `O=C1C=C(O)C(=Cc2c(O)cc(O)cc2O)C(O)=C1`, for which the TGI in [1], in [2], in test [7], in test [3], in test [5] and in [4] was greater than 100 µM throughout. Also, the TGI in test [6] was greater than 100 µM.

Source of the values: PubChem BioAssay (NCI).
